Test results taken from ChEMBL document CHEMBL1201862, “PubChem BioAssay data set” (2004).
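Protocol summary: plate cells (96-well), add compound at 5 concentrations, incubate 48 h, interpolate endpoints linearly. GI50 marks 50% less growth.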 Activity calls are given as the source filed them. Rule as the data show it: active = GI50 up to about 1.1 µM and inactive = higher.

Legend:
Test in all cases: NCI tumour cell line growth inhibition, 48 h
[1] = system: UACC-257
[2] = system: HOP-62
[3] = system: U-251
[4] = system: TK-10
[5] = system: HCT-15
[6] = system: SNB-19
[7] = system: RPMI-8226
[8] = system: CAKI-1
[9] = system: SK-MEL-5
[10] = system: A498
[11] = system: SK-MEL-28
[12] = system: UACC-62
[13] = system: M14
[14] = system: HL-60
[15] = system: HCT-116
[16] = system: SK-MEL-2
[17] = system: EKVX
[18] = system: Malme-3M
[19] = system: OVCAR-5
[20] = system: MOLT-4

`CC(C)C(=O)Cc1ccc2ccccc2n1` was tested, and the GI50 [1] was > 100 µM (inactive), the GI50 [2] was > 100 µM (inactive) and the GI50 [3] was > 100 µM (inactive). The GI50 [4] was > 100 µM (inactive), the GI50 [5] was > 100 µM and the GI50 [6] was > 100 µM (inactive). The GI50 [7] was 0.097 µM (active), the GI50 [8] was > 100 µM (inactive) and the GI50 [9] was > 100 µM (inactive). The GI50 [10] was > 100 µM (inactive), the GI50 [11] was > 100 µM (inactive) and the GI50 [12] was > 100 µM (inactive). For the same compound, the GI50 [13] was > 100 µM (inactive), the GI50 [14] was > 100 µM (inactive) and the GI50 [15] was 95.5 µM (inactive). For the same compound, the GI50 [16] was > 100 µM (inactive), the GI50 [17] was 83.4 µM (inactive) and the GI50 [18] was > 100 µM (inactive). For the same compound, the GI50 [19] was > 100 µM (inactive).

With `O=c1cc(O)c1=O` the GI50 [1] was > 100 µM (inactive), the GI50 [2] was > 100 µM (inactive) and the GI50 [3] was > 100 µM (inactive). For the same compound, the GI50 [4] was > 100 µM (inactive), the GI50 [5] was > 100 µM and the GI50 [6] was > 100 µM (inactive). For the same compound, the GI50 [7] was > 100 µM (inactive), the GI50 [8] was > 100 µM (inactive) and the GI50 [20] was > 100 µM (inactive). The GI50 [9] was > 100 µM (inactive), the GI50 [10] was > 100 µM (inactive) and the GI50 [11] was > 100 µM (inactive). The GI50 [12] was > 100 µM (inactive), the GI50 [13] was > 100 µM (inactive) and the GI50 [14] was > 100 µM (inactive). For the same compound, the GI50 [15] was > 100 µM (inactive), the GI50 [16] was > 100 µM (inactive) and the GI50 [17] was > 100 µM (inactive). The GI50 [18] was > 100 µM (inactive) and the GI50 [19] was > 100 µM (inactive).

In the case of `C=CCCON(C(=O)OC(C)(C)C)c1ccccc1`, the GI50 [1] is reported as > 100 µM (inactive), the GI50 [2] is reported as > 100 µM (inactive) and the GI50 [3] is reported as > 100 µM (inactive). For the same compound, the GI50 [4] was > 100 µM (inactive), the GI50 [5] was > 100 µM and the GI50 [6] was > 100 µM (inactive). For the same compound, the GI50 [7] was 6.44 µM (inactive), the GI50 [8] was > 100 µM (inactive) and the GI50 [20] was 42.6 µM (inactive). The GI50 [9] was > 100 µM (inactive), the GI50 [10] was > 100 µM (inactive) and the GI50 [11] was > 100 µM (inactive). The GI50 [12] was > 100 µM (inactive), the GI50 [13] was > 100 µM (inactive) and the GI50 [14] was 12.4 µM (inactive). The GI50 [15] was 44.6 µM (inactive), the GI50 [16] was > 100 µM (inactive) and the GI50 [17] was > 100 µM (inactive). For the same compound, the GI50 [18] was 20 µM (inactive) and the GI50 [19] was > 100 µM (inactive).

With `C#CCN(Cc1ccc2nc(-c3ccccc3)c(Cl)nc2c1)c1ccc(F)cc1` the GI50 [1] was > 100 µM (inactive), the GI50 [2] was > 100 µM (inactive) and the GI50 [3] was > 100 µM (inactive). The GI50 [4] was > 100 µM (inactive), the GI50 [5] was 87.1 µM and the GI50 [6] was > 100 µM (inactive). The GI50 [7] was 39.7 µM (inactive), the GI50 [8] was > 100 µM (inactive) and the GI50 [20] was 0.767 µM (active). For the same compound, the GI50 [9] was 23.1 µM (inactive), the GI50 [10] was > 100 µM (inactive) and the GI50 [11] was > 100 µM (inactive). The GI50 [12] was > 100 µM (inactive), the GI50 [13] was > 100 µM (inactive) and the GI50 [14] was 15.1 µM (inactive). The GI50 [15] was > 100 µM (inactive), the GI50 [16] was > 100 µM (inactive) and the GI50 [17] was > 100 µM (inactive). For the same compound, the GI50 [18] was > 100 µM (inactive) and the GI50 [19] was > 100 µM (inactive).

In the case of `COc1cc(C(C)c2cc3c(cc2OCCOCCOc2cc4c(cc2C(C)c2cc(OC)c(OC)c(OC)c2)OCO4)OCO3)cc(OC)c1OC` (configuration not stated), the GI50 [1] is reported as > 10 µM (inactive), the GI50 [2] is reported as > 10 µM (inactive) and the GI50 [3] is reported as > 10 µM (inactive). For the same compound, the GI50 [4] was > 10 µM (inactive), the GI50 [5] was > 10 µM and the GI50 [6] was > 10 µM (inactive). For the same compound, the GI50 [7] was > 100 µM (inactive), the GI50 [8] was > 10 µM (inactive) and the GI50 [20] was > 10 µM (inactive). The GI50 [9] was 89.1 µM (inactive), the GI50 [10] was > 10 µM (inactive) and the GI50 [11] was > 10 µM (inactive). The GI50 [12] was > 10 µM (inactive), the GI50 [13] was > 10 µM (inactive) and the GI50 [14] was > 10 µM (inactive). For the same compound, the GI50 [15] was > 10 µM (inactive), the GI50 [16] was > 10 µM (inactive) and the GI50 [17] was > 10 µM (inactive). The GI50 [18] was > 10 µM (inactive) and the GI50 [19] was > 10 µM (inactive).

With `Brc1cc(CCOC2CCCCO2)c(-c2sccc2CCOC2CCCCO2)s1` (configuration not stated) the GI50 [1] was 35.5 µM (inactive), the GI50 [2] was 63.2 µM (inactive) and the GI50 [3] was 57.8 µM (inactive). The GI50 [4] was > 59.6 µM (inactive), the GI50 [5] was 33.3 µM and the GI50 [6] was > 100 µM (inactive). For the same compound, the GI50 [7] was 23.9 µM (inactive), the GI50 [8] was > 91.4 µM (inactive) and the GI50 [20] was 22.2 µM (inactive). The GI50 [9] was 26.9 µM (inactive), the GI50 [10] was > 69 µM (inactive) and the GI50 [11] was > 95.1 µM (inactive). The GI50 [12] was 58.5 µM (inactive), the GI50 [13] was 31.8 µM (inactive) and the GI50 [14] was 17.8 µM (inactive). The GI50 [15] was 23.2 µM (inactive), the GI50 [16] was 27.4 µM (inactive) and the GI50 [17] was 47.6 µM (inactive). The GI50 [18] was 24.9 µM (inactive) and the GI50 [19] was > 100 µM (inactive).

In the case of `O=C(Cc1ccccc1)N/N=C(/c1nc2ccc([N+](=O)[O-])cc2nc1O)C(O)c1ccccc1Cl` (configuration not stated), the GI50 [1] is reported as > 100 µM (inactive), the GI50 [2] is reported as > 100 µM (inactive) and the GI50 [3] is reported as > 100 µM (inactive). For the same compound, the GI50 [4] was > 100 µM (inactive), the GI50 [5] was 40.6 µM and the GI50 [7] was > 100 µM (inactive). For the same compound, the GI50 [8] was 46.6 µM (inactive), the GI50 [20] was 70 µM (inactive) and the GI50 [9] was 41.4 µM (inactive). The GI50 [10] was > 100 µM (inactive), the GI50 [11] was > 100 µM (inactive) and the GI50 [12] was > 100 µM (inactive). For the same compound, the GI50 [13] was 60.8 µM (inactive), the GI50 [14] was > 100 µM (inactive) and the GI50 [15] was > 100 µM (inactive). The GI50 [16] was > 100 µM (inactive), the GI50 [17] was > 100 µM (inactive) and the GI50 [18] was > 100 µM (inactive). For the same compound, the GI50 [19] was > 100 µM (inactive).

`O=c1oc2ccc(-n3c(=O)c4ccccc4c4ccccc4c3=O)cc2c2ccccc12` was tested, and the GI50 [1] was > 100 µM (inactive), the GI50 [2] was > 100 µM (inactive) and the GI50 [3] was 20.8 µM (inactive). For the same compound, the GI50 [4] was > 100 µM (inactive), the GI50 [5] was > 100 µM and the GI50 [6] was 37.7 µM (inactive). The GI50 [7] was > 100 µM (inactive), the GI50 [8] was > 100 µM (inactive) and the GI50 [20] was > 100 µM (inactive). The GI50 [9] was > 100 µM (inactive), the GI50 [10] was > 100 µM (inactive) and the GI50 [11] was > 100 µM (inactive). The GI50 [12] was 64.6 µM (inactive), the GI50 [13] was > 100 µM (inactive) and the GI50 [14] was > 100 µM (inactive). The GI50 [15] was > 100 µM (inactive), the GI50 [16] was 28.3 µM (inactive) and the GI50 [17] was > 100 µM (inactive). The GI50 [18] was > 100 µM (inactive) and the GI50 [19] was > 100 µM (inactive).

With `OC1(c2ccc(Cl)cc2)c2ccc3ccccc3c2C2=N[C@H]3CCCC[C@@H]3N21` (some centres not stated) the GI50 [2] was 2.54 µM (inactive), the GI50 [3] was 5.82 µM (inactive) and the GI50 [4] was 1.52 µM (inactive). For the same compound, the GI50 [5] was 4.75 µM, the GI50 [6] was 36.8 µM (inactive) and the GI50 [7] was 7.73 µM (inactive). For the same compound, the GI50 [8] was 12.2 µM (inactive), the GI50 [20] was 8.99 µM (inactive) and the GI50 [9] was 37 µM (inactive). The GI50 [10] was 20.3 µM (inactive), the GI50 [11] was > 100 µM (inactive) and the GI50 [12] was 7.93 µM (inactive). The GI50 [13] was 2.52 µM (inactive), the GI50 [14] was 5.69 µM (inactive) and the GI50 [15] was 3.27 µM (inactive). For the same compound, the GI50 [16] was 38.5 µM (inactive), the GI50 [17] was 3.09 µM (inactive) and the GI50 [18] was 0.284 µM (active). For the same compound, the GI50 [19] was 3.76 µM (inactive).
